{"source": "ChEMBL document CHEMBL2074330", "about": "“Identification of glutathione as a driving force and leukotriene C4 as a substrate for oatp1, the hepatic sinusoidal organic solute transporter” (J Biol Chem, 1998)", "molecules": {"B1": {"name": "Solute carrier organic anion transporter family member 1A1 (Rattus norvegicus) (protein)", "chain": "MEETEKKIATQEGRLFSKMKVFLLSLTCACLTKSLSGVYMNSMLTQIERQFDISTSVAGLINGSFEIGNLFFIVFVSYFGTKLHRPVVIGIGCVIMGLGCLLMSLPHFFMGRYEYETTISPTGNLSSNSFLCMENRTQTLKPTQDPAECVKEMKSLMWICVMVGNIIRGIGETPIVPLGISYIEDFAKSENSPLYIGILEMGKVAGPIFGLLLGSYCAQIYVDIGSVNTDDLTITPSDTRWVGAWWIGFLVCAGVNILTSIPFFFLPKALPKKGQQENVAVTKDGKVEKYGGQAREENLGITKDFLTFMKRLFCNPIYMLFILTSVLQVNGFINKFTFLPKYLEQQYGKSTAEAIFLIGVYSLPPICLGYLIGGFIMKKFKITVKKAAYLAFCLSVFEYLLFLCHFMLTCDNAAVAGLTTSYKGVQHQLHVESKVLADCNTRCSCSTNTWDPVCGDNGVAYMSACLAGCKKFVGTGTNMVFQDCSCIQSLGNSSAVLGLCKKGPECANRLQYFLILTIIISFIYSLTAIPGYMVFLRCVKSEEKSLGVGLHTFCIRVFAGIPAPVYFGALIDRTCLHWGTLKCGQRGACRMYDINSFRHIYLGLPIALRGSSYLPAFFILILMRKFQFPGDIDSSATDHTEMMLGEKESEHTDVHGSPQVENDGELKTKL"}}, "key": {"[1]": {"target": "T1, Solute carrier organic anion transporter family member 1A1 (Rattus norvegicus, UniProt P46720)", "T1 sequence (P46720 whole entry)": "B1 chain", "assay": "TP_TRANSPORTER: inhibition of LTC4 uptake (LTC4: 0.01uM, p-Chlorophenacyl-SG: 1000 uM) in Xenopus laevis oocytes", "assay_type": "functional, cell-based, Oocyte", "design": "scale not given: the % may be the effect or the level left", "conditions": "probe LTC4, read-out: Activity"}, "[2]": {"target": "T1, Solute carrier organic anion transporter family member 1A1", "assay": "TP_TRANSPORTER: inhibition of DNP-SG uptake (DNP-SG: 50 uM, p-Chlorophenacyl-SG: 1000 uM) in Xenopus laevis oocytes", "assay_type": "functional, cell-based, Oocyte", "design": "scale not given: the % may be the effect or the level left", "conditions": "probe DNP-SG, read-out: Activity"}, "[3]": {"target": "T1, Solute carrier organic anion transporter family member 1A1", "assay": "TP_TRANSPORTER: inhibition of LTC4 uptake (LTC4: 0.01uM, DNP-SG: 1000 uM) in Xenopus laevis oocytes", "assay_type": "functional, cell-based", "design": "scale not given: the % may be the effect or the level left", "conditions": "oocyte"}, "[4]": {"target": "T1, Solute carrier organic anion transporter family member 1A1", "assay": "TP_TRANSPORTER: inhibition of LTC4 uptake (LTC4: 0.01uM, DIDS: 250 uM) in Xenopus laevis oocytes", "assay_type": "functional, cell-based, Oocyte", "design": "scale not given: the % may be the effect or the level left", "conditions": "probe LTC4, read-out: Activity"}, "[5]": {"target": "T1, Solute carrier organic anion transporter family member 1A1", "assay": "TP_TRANSPORTER: inhibition of DNP-SG uptake (DNP-SG: 50 uM, DIDS: 250 uM) in Xenopus laevis oocytes", "assay_type": "functional, cell-based, Oocyte", "design": "scale not given: the % may be the effect or the level left", "conditions": "probe DNP-SG, read-out: Activity"}, "[6]": {"target": "T1, Solute carrier organic anion transporter family member 1A1", "assay": "TP_TRANSPORTER: inhibition of LTC4 uptake (LTC4: 0.01uM, Ouabain: 500 uM) in Xenopus laevis oocytes", "assay_type": "functional, cell-based, Oocyte", "design": "scale not given: the % may be the effect or the level left", "conditions": "probe LTC4, read-out: Activity"}, "[7]": {"target": "T1, Solute carrier organic anion transporter family member 1A1", "assay": "TP_TRANSPORTER: inhibition of DNP-SG uptake (DNP-SG: 50 uM, Ouabain: 500 uM) in Xenopus laevis oocytes", "assay_type": "functional, cell-based, Oocyte", "design": "scale not given: the % may be the effect or the level left", "conditions": "probe DNP-SG, read-out: Activity"}, "[8]": {"target": "T1, Solute carrier organic anion transporter family member 1A1", "assay": "TP_TRANSPORTER: inhibition of DNP-SG uptake (DNP-SG: 50 uM, Bilirubin ditaurate: 500 uM) in Xenopus laevis oocytes", "assay_type": "functional, cell-based, Oocyte", "design": "scale not given: the % may be the effect or the level left", "conditions": "probe DNP-SG, read-out: Activity"}, "[9]": {"target": "T1, Solute carrier organic anion transporter family member 1A1", "assay": "TP_TRANSPORTER: inhibition of LTC4 uptake (LTC4: 0.01uM, Bilirubin ditaurate: 500 uM) in Xenopus laevis oocytes", "assay_type": "functional, cell-based, Oocyte", "design": "scale not given: the % may be the effect or the level left", "conditions": "probe LTC4, read-out: Activity"}, "[10]": {"target": "T1, Solute carrier organic anion transporter family member 1A1", "assay": "TP_TRANSPORTER: inhibition of DNP-SG uptake (DNP-SG: 50 uM, BSP: 250 uM) in Xenopus laevis oocytes", "assay_type": "functional, cell-based", "design": "scale not given: the % may be the effect or the level left", "conditions": "oocyte"}, "[11]": {"target": "T1, Solute carrier organic anion transporter family member 1A1", "assay": "TP_TRANSPORTER: inhibition of LTC4 uptake (LTC4: 0.01uM, BSP: 250 uM) in Xenopus laevis oocytes", "assay_type": "functional, cell-based, Oocyte", "design": "scale not given: the % may be the effect or the level left", "conditions": "probe LTC4, read-out: Activity"}, "[12]": {"substrate": "CCCCC/C=C\\C\\C=C/C=C/C=C/[C@@H](SC[C@@H](NC(=O)CC[C@H](N)C(=O)O)C(=O)NCC(=O)O)[C@@H](O)CCCC(=O)O", "assay": "(§1) TP_TRANSPORTER: uptake in Xenopus laevis oocytes", "assay_type": "functional, cell-based, Oocyte"}, "[13]": {"substrate": "N[C@@H](CCC(=O)N[C@H](CSc1ccc([N+](=O)[O-])cc1[N+](=O)[O-])C(=O)NCC(=O)O)C(=O)O", "assay": "as §1", "assay_type": "functional, cell-based, Oocyte"}}, "data": [{"molecule": "NC(CCC(=O)N[C@@H](CSCC(=O)c1ccc(Cl)cc1)C(=O)NCC(=O)O)C(=O)O", "note": "(stereo partly drawn)", "values": [{"measurement": "activity at 1000 µM", "setting": "[1]", "value": 23, "unit": "%"}, {"measurement": "activity at 1000 µM", "setting": "[2]", "value": 31, "unit": "%"}]}, {"molecule": "N[C@@H](CCC(=O)N[C@H](CSc1ccc([N+](=O)[O-])cc1[N+](=O)[O-])C(=O)NCC(=O)O)C(=O)O", "values": [{"measurement": "Activity", "setting": "[3]", "value": 15, "unit": "%"}]}, {"molecule": "O=S(=O)(O)c1cc(N=C=S)ccc1/C=C/c1ccc(NC=S)cc1S(=O)(=O)O", "values": [{"measurement": "activity at 250 µM", "setting": "[4]", "value": 25, "unit": "%"}, {"measurement": "activity at 250 µM", "setting": "[5]", "value": 39, "unit": "%"}]}, {"molecule": "C[C@@H]1O[C@@H](O[C@H]2C[C@@H](O)[C@]3(CO)[C@H]4[C@H](O)C[C@]5(C)[C@@H](C6=CC(=O)OC6)CC[C@]5(O)[C@@H]4CC[C@]3(O)C2)[C@H](O)[C@H](O)[C@H]1O", "note": "[OUABAIN]", "values": [{"measurement": "activity at 500 µM", "setting": "[6]", "value": 52, "unit": "%"}, {"measurement": "activity at 500 µM", "setting": "[7]", "value": 61, "unit": "%"}]}, {"molecule": "C=CC1=C(C)/C(=C/c2[nH]c(Cc3[nH]c(/C=C4\\NC(=O)C(C)=C4C=C)c(C)c3CCC(=O)NCCS(=O)(=O)O)c(CCC(=O)NCCS(=O)(=O)O)c2C)NC1=O", "note": "[BILIRUBIN DITAURATE]", "values": [{"measurement": "activity at 500 µM", "setting": "[8]", "value": 6, "unit": "%"}, {"measurement": "activity at 500 µM", "setting": "[9]", "value": 4, "unit": "%"}]}, {"molecule": "O=C1OC(c2ccc(O)c(S(=O)(=O)[O-])c2)(c2ccc(O)c(S(=O)(=O)[O-])c2)c2c(Br)c(Br)c(Br)c(Br)c21.[Na+].[Na+]", "note": "[SULFOBROMOPHTHALEIN SODIUM]", "values": [{"measurement": "Activity", "setting": "[10]", "value": "< 2", "unit": "%"}, {"measurement": "activity at 250 µM", "setting": "[11]", "value": "< 2", "unit": "%"}]}, {"molecule": "B1", "values": [{"measurement": "Km", "setting": "[12]", "value": 0.27, "unit": "µM"}, {"measurement": "Km", "setting": "[13]", "value": 408, "unit": "µM"}]}]}
